ChEMBL document CHEMBL4393671, “Design of a Cyclin G Associated Kinase (GAK)/Epidermal Growth Factor Receptor (EGFR) Inhibitor Set to Interrogate the Relationship of EGFR and GAK in Chordoma” (J Med Chem, 2019)
The source made the active and inactive calls. No cut-off for these calls is given here.

Columns and labels:
[1] = biological target: T1, STE20-related kinase adapter protein alpha (Homo sapiens) (UniProt Q7RTN6); experiment: Binding affinity to LYK5 in human SUM159 cell lysates by multiplexed inhibitor bead profiling-based LC-MS/MS analysis; assay type: subcellular; conditions: Lysate
T1 sequence (whole entry): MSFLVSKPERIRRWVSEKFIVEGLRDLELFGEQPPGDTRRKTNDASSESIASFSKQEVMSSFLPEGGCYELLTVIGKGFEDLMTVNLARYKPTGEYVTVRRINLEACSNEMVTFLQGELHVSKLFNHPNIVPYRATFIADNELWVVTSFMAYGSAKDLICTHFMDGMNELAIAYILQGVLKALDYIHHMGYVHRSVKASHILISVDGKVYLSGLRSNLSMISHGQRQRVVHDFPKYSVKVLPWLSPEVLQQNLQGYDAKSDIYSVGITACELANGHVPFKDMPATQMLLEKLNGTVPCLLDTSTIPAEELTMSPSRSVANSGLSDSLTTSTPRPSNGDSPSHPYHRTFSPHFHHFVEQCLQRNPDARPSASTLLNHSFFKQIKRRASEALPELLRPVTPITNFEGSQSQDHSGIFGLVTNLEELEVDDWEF

[2] = Effect on total EGFR expression in human UCH1 cells at 1 to 10 uM measured after 4 hrs by Western blot analysis; assay type: ADME, cell-based
[3] = cells; assay type: functional, cell-based; conditions: Homo sapiens, 72 h
Description: Antiproliferative activity against human UCH14 cells measured after 72 hrs by alamar blue assay

[4] = cells; assay type: functional, cell-based; conditions: Homo sapiens, UCH1, 72 h
Description: Antiproliferative activity against human UCH1 cells measured after 72 hrs by alamar blue assay

[5] = biological target: Epidermal growth factor receptor (Homo sapiens, UniProt P00533); experiment: Inhibition of EGFR in human UCH1 cells assessed as reduction in EGF-induced EGFR phosphorylation at Y1068 residue at 10 uM preincubated for 4 hrs followed by EGF--stimulation and measured after 15 mins by Western blot analysis relative to control; assay type: cell-based
[6] = biological target: T2, Serine/threonine-protein kinase Nek1 (Homo sapiens) (UniProt Q96PY6); experiment: Binding affinity to NEK1 in human SUM159 cell lysates by multiplexed inhibitor bead profiling-based LC-MS/MS analysis; assay type: subcellular; conditions: Lysate
T2 sequence (whole entry): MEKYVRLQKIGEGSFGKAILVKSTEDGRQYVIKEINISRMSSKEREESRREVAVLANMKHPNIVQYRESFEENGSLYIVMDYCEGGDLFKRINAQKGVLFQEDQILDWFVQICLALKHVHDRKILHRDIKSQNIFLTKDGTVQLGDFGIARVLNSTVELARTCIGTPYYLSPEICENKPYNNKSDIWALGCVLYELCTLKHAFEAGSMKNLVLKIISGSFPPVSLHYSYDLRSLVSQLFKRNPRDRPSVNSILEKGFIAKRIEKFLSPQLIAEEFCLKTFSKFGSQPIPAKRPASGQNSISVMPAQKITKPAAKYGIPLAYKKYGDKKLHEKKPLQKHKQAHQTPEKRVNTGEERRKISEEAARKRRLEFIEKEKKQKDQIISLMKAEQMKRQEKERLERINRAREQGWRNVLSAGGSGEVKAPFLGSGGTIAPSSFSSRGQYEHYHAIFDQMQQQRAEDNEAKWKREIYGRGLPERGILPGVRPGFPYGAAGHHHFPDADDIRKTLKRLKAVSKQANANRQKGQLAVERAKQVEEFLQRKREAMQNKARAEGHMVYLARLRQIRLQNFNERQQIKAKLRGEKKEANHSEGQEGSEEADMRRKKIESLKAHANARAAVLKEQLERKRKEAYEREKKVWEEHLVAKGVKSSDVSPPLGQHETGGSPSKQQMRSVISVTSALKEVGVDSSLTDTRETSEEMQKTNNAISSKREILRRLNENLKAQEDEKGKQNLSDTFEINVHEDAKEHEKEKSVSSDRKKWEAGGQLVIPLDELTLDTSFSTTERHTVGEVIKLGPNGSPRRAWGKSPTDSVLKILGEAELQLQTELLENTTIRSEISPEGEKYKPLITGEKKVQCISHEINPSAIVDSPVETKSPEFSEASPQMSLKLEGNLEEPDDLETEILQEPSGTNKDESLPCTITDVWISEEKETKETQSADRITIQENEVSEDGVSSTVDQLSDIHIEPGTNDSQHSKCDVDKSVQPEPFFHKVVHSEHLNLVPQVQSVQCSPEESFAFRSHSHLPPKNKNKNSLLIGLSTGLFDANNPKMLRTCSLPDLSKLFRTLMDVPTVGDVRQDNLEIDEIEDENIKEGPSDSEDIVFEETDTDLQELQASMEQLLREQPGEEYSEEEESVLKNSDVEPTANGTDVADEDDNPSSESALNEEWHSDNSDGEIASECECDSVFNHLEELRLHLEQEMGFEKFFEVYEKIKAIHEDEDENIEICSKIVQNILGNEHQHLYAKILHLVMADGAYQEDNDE

[7] = Effect on total EGFR expression in human UCH2 cells at 1 to 10 uM measured after 4 hrs by Western blot analysis; assay type: ADME, cell-based
[8] = cells; assay type: functional, cell-based; conditions: Homo sapiens, 72 h; remark: listed apart in the source
Description: Antiproliferative activity against human UCH7 cells measured after 72 hrs by alamar blue assay

[9] = biological target: Receptor-interacting serine/threonine-protein kinase 2 (Homo sapiens) (UniProt O43353); experiment: Binding affinity to RIPK2 in human SUM159 cell lysates by multiplexed inhibitor bead profiling-based LC-MS/MS analysis; assay type: subcellular; conditions: Lysate
Receptor-interacting serine/threonine-protein kinase 2 (Homo sapiens), sequence (O43353 whole entry): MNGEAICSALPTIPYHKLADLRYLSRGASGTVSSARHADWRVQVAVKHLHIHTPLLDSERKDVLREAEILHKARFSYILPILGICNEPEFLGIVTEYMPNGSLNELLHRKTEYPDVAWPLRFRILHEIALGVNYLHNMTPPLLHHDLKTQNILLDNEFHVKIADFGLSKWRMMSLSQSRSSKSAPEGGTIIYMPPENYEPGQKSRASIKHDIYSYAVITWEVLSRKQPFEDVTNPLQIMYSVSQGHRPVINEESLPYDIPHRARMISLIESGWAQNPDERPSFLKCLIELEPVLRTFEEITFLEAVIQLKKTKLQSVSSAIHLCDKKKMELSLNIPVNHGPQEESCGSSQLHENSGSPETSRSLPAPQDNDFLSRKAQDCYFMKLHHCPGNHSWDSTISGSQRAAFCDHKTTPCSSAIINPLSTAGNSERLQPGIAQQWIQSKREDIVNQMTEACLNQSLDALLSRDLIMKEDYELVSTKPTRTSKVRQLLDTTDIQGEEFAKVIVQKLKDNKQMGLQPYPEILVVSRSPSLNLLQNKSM

Epidermal growth factor receptor, sequence (P00533 whole entry): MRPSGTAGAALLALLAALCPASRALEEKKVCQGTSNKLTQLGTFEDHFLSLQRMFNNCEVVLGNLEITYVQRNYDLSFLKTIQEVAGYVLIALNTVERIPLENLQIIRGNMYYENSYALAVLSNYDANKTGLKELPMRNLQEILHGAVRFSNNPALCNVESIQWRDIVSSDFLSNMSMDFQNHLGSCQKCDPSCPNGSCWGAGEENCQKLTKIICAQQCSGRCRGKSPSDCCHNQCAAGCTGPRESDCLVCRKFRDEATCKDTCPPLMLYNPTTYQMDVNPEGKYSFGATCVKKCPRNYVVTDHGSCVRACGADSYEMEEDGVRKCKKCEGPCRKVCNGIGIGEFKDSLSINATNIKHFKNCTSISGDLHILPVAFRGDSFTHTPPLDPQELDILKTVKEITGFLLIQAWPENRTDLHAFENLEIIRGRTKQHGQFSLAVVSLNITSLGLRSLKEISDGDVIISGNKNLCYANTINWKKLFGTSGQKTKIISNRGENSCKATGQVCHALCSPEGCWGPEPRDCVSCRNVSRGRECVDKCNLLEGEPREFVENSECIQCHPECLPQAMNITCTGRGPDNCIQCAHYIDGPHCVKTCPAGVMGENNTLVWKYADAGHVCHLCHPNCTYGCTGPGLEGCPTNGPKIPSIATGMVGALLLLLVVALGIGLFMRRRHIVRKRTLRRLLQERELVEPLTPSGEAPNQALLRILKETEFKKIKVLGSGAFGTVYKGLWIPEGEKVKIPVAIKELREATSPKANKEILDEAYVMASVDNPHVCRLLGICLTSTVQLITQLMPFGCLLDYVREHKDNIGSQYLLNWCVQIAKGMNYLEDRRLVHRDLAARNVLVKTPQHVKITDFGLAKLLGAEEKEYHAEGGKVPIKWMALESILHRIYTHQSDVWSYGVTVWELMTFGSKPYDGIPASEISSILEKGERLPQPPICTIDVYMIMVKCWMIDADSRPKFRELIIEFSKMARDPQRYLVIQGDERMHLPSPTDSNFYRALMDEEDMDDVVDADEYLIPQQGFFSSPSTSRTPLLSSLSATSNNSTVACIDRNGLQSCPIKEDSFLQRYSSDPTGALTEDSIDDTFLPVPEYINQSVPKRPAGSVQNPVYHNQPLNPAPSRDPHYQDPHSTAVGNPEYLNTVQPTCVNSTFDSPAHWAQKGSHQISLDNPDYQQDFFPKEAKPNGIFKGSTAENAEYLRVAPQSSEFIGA

**Q.** For `C#Cc1cccc(Nc2ccnc3cc(OC)c(OC)cc23)c1`, which Activity [1] is on record?
**A.** The Activity was “Active”.

**Q.** And the Activity [2]?
**A.** Its Activity is “Non-Toxic”.

**Q.** And the IC50 [3]?
**A.** Its IC50 is 13 µM.

**Q.** What about the IC50 [4] of the same compound?
**A.** The IC50 was 2.1 µM.

**Q.** And the inhibition [5]?
**A.** The inhibition was 60.8%.

**Q.** What about the Activity [6] of the same compound?
**A.** Its Activity is “Active”.

**Q.** What about the Activity [7] of the same compound?
**A.** Its Activity is “Non-Toxic”.

**Q.** And the IC50 [8]?
**A.** Its IC50 is 20 µM.

**Q.** And the Activity [9]?
**A.** Its Activity is “Active”.
